pIC50: −log10 of the molar value. “And” between values parts separate entries of the source, which are not always exact repeats. Identical values can stand only once.
How the values were obtained:
[1] = target: T1, human Edg-1 (S1P1) (Homo sapiens, UniProt P21453); test: S1P1 binding assay: inhibition of [33P]-S1P binding to membrane fraction of HEK-293 cells transferred with the human Edg-1 (S1P1) gene; settings: for pIC50: [33P]-S1P 0.1 nM, human Edg-1 (S1P1) HEK-293 membrane fraction, 1 h at 30° C., read-out: IC50 (concentration at which binding in the absence of the test compound was inhibited by 50%); for inhibition at 10 µM: test compound at 10 μM, inhibition of [33P]-S1P binding to the membrane fraction of HEK-293 cells expressing human Edg-1 (S1P1)
T1 construct: expressed in transfected cells; host or cells: HEK-293
T1 sequence (P21453 whole entry): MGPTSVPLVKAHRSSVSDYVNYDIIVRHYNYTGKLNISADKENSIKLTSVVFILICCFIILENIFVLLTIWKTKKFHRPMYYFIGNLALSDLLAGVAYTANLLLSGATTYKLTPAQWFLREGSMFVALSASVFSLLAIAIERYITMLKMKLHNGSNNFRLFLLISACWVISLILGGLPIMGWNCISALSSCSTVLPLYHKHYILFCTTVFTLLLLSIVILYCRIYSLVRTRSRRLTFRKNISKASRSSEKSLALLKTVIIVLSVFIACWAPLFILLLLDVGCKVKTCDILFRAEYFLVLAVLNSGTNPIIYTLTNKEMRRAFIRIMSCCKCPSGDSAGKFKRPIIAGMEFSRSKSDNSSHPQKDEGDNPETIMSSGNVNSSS
Outline: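 With 0.1 nM [33P]-S1P and compound (10^−5M single point, or a concentration range for IC50) in 0.1% DMSO, membrane fractions from human Edg-1-expressing HEK-293 cells were treated for one hour at 30° C in 20 mM Tris-HCl pH 7.4 with NaF, deoxypyridoxine and BSA. Bound label was measured after filtration, with untransfected-cell background subtracted.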

Structure (SMILES) | pIC50 [1] | inhibition at 10 µM [1] | melting point
CCn1c(Oc2ccc(C)c(C)c2)nnc1[C@@H](C)NS(=O)(=O)c1ccc(Cl)c(Cl)c1 [Compound 14] | 8.19 | 99.5% | 161 to 162.5 °C
CCn1c(Oc2ccc(C3CCCCC3)cc2)nnc1[C@@H](C)NS(=O)(=O)c1ccc(Cl)c(Cl)c1 [Compound 15] | 7.49 | 103% | 200 to 205 °C
CCn1c(Oc2ccc(OC)c(OC)c2)nnc1[C@@H](C)NS(=O)(=O)c1ccc(Cl)c(Cl)c1 [Compound 16] | ≥ 7.46 | 101% | 125 to 127 °C
CCCCOc1ccc(Oc2nnc([C@@H](C)NS(=O)(=O)c3ccc(Cl)c(Cl)c3)n2CC)cc1 [Compound 21] | ≥ 7.46 | 96.7% | 146.5 to 149.5 °C
CCn1c(Oc2ccc(Oc3ccccc3)cc2)nnc1[C@@H](C)NS(=O)(=O)c1ccc(Cl)c(Cl)c1 [Compound 22] | 7.85 | 95.4% | 163 to 167.5 °C
CCn1c(Oc2ccc(OCc3ccccc3)cc2)nnc1[C@@H](C)NS(=O)(=O)c1ccc(Cl)c(Cl)c1 [Compound 23] | ≥ 7.46 | 96.7% | 173 to 176 °C
CCc1ccc(Oc2nnc([C@@H](C)NS(=O)(=O)c3ccc(Cl)c(Cl)c3)n2CC)cc1 [Compound 24] | ≥ 8.00 | 101% | 172.5 to 173 °C
CCCc1ccc(Oc2nnc([C@@H](C)NS(=O)(=O)c3ccc(Cl)c(Cl)c3)n2CC)cc1 [Compound 25] | ≥ 7.46 | 97.5% | 155 to 156 °C
CCn1c(Oc2cccc(N(C)C)c2)nnc1[C@@H](C)NS(=O)(=O)c1ccc(Cl)c(Cl)c1 [Compound 28] | 8.51 | 104% | 165 to 170 °C
CCn1c(Oc2ccc(-c3ccccc3)cc2)nnc1[C@@H](C)NS(=O)(=O)c1ccc(Cl)c(Cl)c1 [Compound 29] |  | 101% | 177 to 178.5 °C
CCn1c(Oc2cc(Cl)cc(Cl)c2)nnc1[C@@H](C)NS(=O)(=O)c1ccc(Cl)c(Cl)c1 [Compound 30] |  | 100% | 212 to 216 °C
CCn1c(Oc2ccc(F)c(Cl)c2)nnc1[C@@H](C)NS(=O)(=O)c1ccc(Cl)c(Cl)c1 [Compound 31] |  | 101% | 143 to 146 °C
CCCCc1ccc(Oc2nnc([C@@H](C)NS(=O)(=O)c3ccc(Cl)c(Cl)c3)n2CC)cc1 [Compound 32] | ≥ 7.46 | 104% | 147 to 148 °C
CCn1c(Oc2ccc(OC(F)(F)F)cc2)nnc1[C@@H](C)NS(=O)(=O)c1ccc(Cl)c(Cl)c1 [Compound 33] |  | 101% | 173.5 to 174.5 °C
CCn1c(Oc2cccc(N3CCOCC3)c2)nnc1[C@@H](C)NS(=O)(=O)c1ccc(Cl)c(Cl)c1 [Compound 34] | 8.70 | 106% | 192.5 to 195.5 °C
CCn1c(Oc2ccc(OCCN(C)C)cc2)nnc1[C@@H](C)NS(=O)(=O)c1ccc(Cl)c(Cl)c1 [Compound 35] | ≥ 7.46 | 100% | 156 to 159 °C
CCn1c(Oc2ccc(F)c(C)c2)nnc1[C@@H](C)NS(=O)(=O)c1ccc(Cl)c(Cl)c1 [Compound 37] | ≥ 7.46 | 100% | 145 to 147 °C

Structure (SMILES) | pIC50 [1] | inhibition at 10 µM [1] | melting point
CCn1c(Oc2ccc(C(C)C)cc2)nnc1[C@@H](C)NS(=O)(=O)c1ccc(Cl)c(Cl)c1 [Compound 39] | ≥ 8.00 | 98.5% | 176 to 178 °C
CCn1c(Oc2cccc3ccccc23)nnc1[C@@H](C)NS(=O)(=O)c1ccc(Cl)c(Cl)c1 [Compound 41] |  | 92% | 166 to 170 °C
CCn1c(Oc2ccc(N(C)C)cc2)nnc1[C@@H](C)NS(=O)(=O)c1ccc(Cl)c(Cl)c1 [Compound 43] | ≥ 7.46 | 99.8% | 182.5 to 185 °C
CCn1c(Oc2ccc(F)c(F)c2)nnc1[C@@H](C)NS(=O)(=O)c1ccc(Cl)c(Cl)c1 [Compound 44] |  | 100% | 140 to 145.5 °C
CCn1c(Oc2ccc3sc(C)nc3c2)nnc1[C@@H](C)NS(=O)(=O)c1ccc(Cl)c(Cl)c1 [Compound 46] | ≥ 7.46 and 7.55 | 94.6% | 247 to 250 °C
CCn1c(Oc2ccc(N3CCCCC3)cc2)nnc1[C@@H](C)NS(=O)(=O)c1ccc(Cl)c(Cl)c1 [Compound 48] |  | 96.7% | 195.5 to 196.5 °C
CCn1c(Oc2ccc(N3CCCC3)cc2)nnc1[C@@H](C)NS(=O)(=O)c1ccc(Cl)c(Cl)c1 [Compound 49] | 8.22 | 102% | 198 to 199 °C
CCn1c(Oc2ccc(N3CCN(C)CC3)cc2)nnc1[C@@H](C)NS(=O)(=O)c1ccc(Cl)c(Cl)c1 [Compound 52] |  | 100% | 203 to 205 °C
Cc1ccc(Oc2nnc([C@@H](C)NS(=O)(=O)c3ccc(Cl)c(Cl)c3)n2C)cc1 [Compound 58] |  | 99.7% | 181 to 183 °C
CCCn1c(Oc2ccc(C)cc2)nnc1[C@@H](C)NS(=O)(=O)c1ccc(Cl)c(Cl)c1 [Compound 59] |  | 94.3% | 169.5 to 170.5 °C
Cc1ccc(Oc2nnc([C@@H](C)NS(=O)(=O)c3ccc(Cl)c(Cl)c3)n2C(C)C)cc1 [Compound 60] |  | 98.9% | 192.5 to 195 °C
CCn1c(Oc2ccc(C)cc2)nnc1[C@H](C)NS(=O)(=O)c1ccc(Cl)c(Cl)c1 [Compound 62] |  | 83.5% | 186 to 188.5 °C
CCn1c(Oc2ccc3[nH]ccc3c2)nnc1[C@@H](C)NS(=O)(=O)c1ccc(Cl)c(Cl)c1 [Compound 63] |  | 105% | 216.5 to 217.5 °C
CCn1c(Oc2ccc3cc[nH]c3c2)nnc1[C@@H](C)NS(=O)(=O)c1ccc(Cl)c(Cl)c1 [Compound 64] | ≥ 7.46 | 101% | 223 to 224 °C
CCn1c(Oc2ccc3[nH]c(C)cc3c2)nnc1[C@@H](C)NS(=O)(=O)c1ccc(Cl)c(Cl)c1 [Compound 65] |  | 105% | 201 to 202 °C
CCn1c(Oc2cc(C)ccn2)nnc1[C@@H](C)NS(=O)(=O)c1ccc(Cl)c(Cl)c1 [Compound 66] |  | 93.4% | 183 to 190 °C

More lines, now with the values ahead:

pIC50 [1] | inhibition at 10 µM [1] | melting point | Structure (SMILES)
 | 95.4% | 129.5 to 131.5 °C | CCn1c(Oc2cc(OC)c(OC)c(OC)c2)nnc1[C@@H](C)NS(=O)(=O)c1ccc(Cl)c(Cl)c1 [Compound 17]
≥ 7.46 | 102% | 189 to 194 °C | CCn1c(Oc2cc(C)c(C)c(C)c2)nnc1[C@@H](C)NS(=O)(=O)c1ccc(Cl)c(Cl)c1 [Compound 18]
 | 97.9% | 145 to 150 °C | CCn1c(Oc2cc(C)cc(C)c2)nnc1[C@@H](C)NS(=O)(=O)c1ccc(Cl)c(Cl)c1 [Compound 19]
 | 97.4% | 118 to 120 °C | CCn1c(Oc2cc(OC)cc(OC)c2)nnc1[C@@H](C)NS(=O)(=O)c1ccc(Cl)c(Cl)c1 [Compound 20]
≥ 7.46 | 97.9% | 159 to 164 °C | CCn1c(Oc2ccc(Cl)c(C)c2)nnc1[C@@H](C)NS(=O)(=O)c1ccc(Cl)c(Cl)c1 [Compound 26]
 | 100% | 163 to 168 °C | CCn1c(Oc2ccc(-n3cccc3)cc2)nnc1[C@@H](C)NS(=O)(=O)c1ccc(Cl)c(Cl)c1 [Compound 27]
7.76 | 102% | 125 to 130 °C | CCn1c(Oc2ccc(OCCN3CCOCC3)cc2)nnc1[C@@H](C)NS(=O)(=O)c1ccc(Cl)c(Cl)c1 [Compound 36]
7.93 | 105% | 148.5 to 150 °C | COc1ccc(Oc2nnc([C@@H](C)NS(=O)(=O)c3ccc(Cl)c(Cl)c3)n2C2CC2)cc1 [Compound 38]
≥ 8.00 | 106% | 155.5 to 156.5 °C | CCn1c(Oc2cccc(C(C)C)c2)nnc1[C@@H](C)NS(=O)(=O)c1ccc(Cl)c(Cl)c1 [Compound 40]
7.66 | 102% | 176.5 to 179.5 °C | CCn1c(Oc2ccc3ccccc3c2)nnc1[C@@H](C)NS(=O)(=O)c1ccc(Cl)c(Cl)c1 [Compound 42]
 | 102% | 191 to 192 °C | CCn1c(Oc2ccc(N3CCOCC3)cc2)nnc1[C@@H](C)NS(=O)(=O)c1ccc(Cl)c(Cl)c1 [Compound 47]
 | 92.9% | 129 to 130 °C | CCn1c(Oc2cccnc2)nnc1[C@@H](C)NS(=O)(=O)c1ccc(Cl)c(Cl)c1 [Compound 50]
 | 99.9% | 148.5 to 150.5 °C | CCn1c(Oc2ccc(C)nc2)nnc1[C@@H](C)NS(=O)(=O)c1ccc(Cl)c(Cl)c1 [Compound 51]
 | 86.8% | 172 to 173 °C | CCn1c(Oc2ccccn2)nnc1[C@@H](C)NS(=O)(=O)c1ccc(Cl)c(Cl)c1 [Compound 53]
 | 104% | 192 to 193 °C | CCn1c(Oc2ccc3ccncc3c2)nnc1[C@@H](C)NS(=O)(=O)c1ccc(Cl)c(Cl)c1 [Compound 54]
 | 95.5% | 182 to 188 °C | CCn1c(Oc2ccc(C)cn2)nnc1[C@@H](C)NS(=O)(=O)c1ccc(Cl)c(Cl)c1 [Compound 67]
